For one test, the target named is T1, PTK2 (Homo sapiens, UniProt Q05397).
T1 construct: purchased Invitrogen PV3832
Kind of test: PTK2 Enzyme Test (DELFIA assay, poly-Glu-Tyr substrate). It counts as biochemical. To be noted: active PTK2 enzyme, 50 μM ATP in ATP Mix, 1 h pre-incubation. On the procedure: This test uses active PTK2 enzyme (Invitrogen Code PV3832) and poly-Glu-Tyr (4:1, Sigma P-0275) as the kinase substrate. The kinase activity is detected by means of the phosphorylation of the substrate in a DELFIA™ assay. The phosphorylated substrate is detected with the Europium-labelled phosphotyrosine antibody PY20 (Perkin Elmer, No.: AD0038).
In order to determine concentration-activity curves with PTK2-inhibitors the compounds are serially diluted in 10% DMSO/H2O and 10 μL of each dilution are dispensed per well in a 96-well microtitre plate (clear U-shaped base plate, Greiner No. 650101) (the inhibitors are tested in duplicates) and mixed with 10 μL/well of PTK2 kinase (0.01 μg/well). PTK2 kinase is diluted accordingly beforehand with kinase dilution buffer (20 mM TRIS/HCl pH 7.5, 0.1 mM EDTA, 0.1 mM EGTA, 0.286 mM sodium orthovanadate, 10% glycerol with the addition of freshly prepared BSA (fraction V 1 mg/mL) and DTT (1 mM)). The test compound and the PTK2 kinase are pre-incubated for 1 h at RT and shaken at 500 rpm. Then 20 μL ATP Mix (30 mM TRIS/HCl pH 7.5, 0.02% Brij, 0.2 mM sodium orthovanadate, 10 mM magnesium acetate, 0.1 mM EGTA, 1× Phosphatase Inhibitor Cocktail 1 (Sigma, No.: P2850), 50 μM ATP (Sigma, No.: A3377; 15 mM stock solution)) are added. The reaction is started by the addition of 10 μL/well of poly (Glu,Tyr) substrate (25 μg/well poly (Glu,Tyr), 0.05 μg/well biotinylated poly (Glu,Tyr) dissolved in 250 mM TRIS/HCl pH 7.5, 9 mM DTT)—the final concentration of DMSO is 2%. After 1 h kinase reaction (the plates are shaken at 500 rpm), the reaction is stopped by the addition of 12 μL/well of 100 mM EDTA, pH 8. And shaken for a further 5 min at RT (500 U/min).
55 μL of the reaction mixture are transferred into a streptavidin plate (Strepta Well High Bind (transparent, 96-well) made by Roche, No.: 11989685001) and incubated for 1 h at RT (shaking at 500 rpm). Then the microtitre plate is washed three times with 200 μL/well D-PBS (Invitrogen, No.:14190). 100 μL of 1:2000 diluted DELFIA Eu-N1 Anti-Phosphotyrosine PY20 antibody (Perkin Elmer, No.: AD0038, 1:2000 diluted in DELFIA test buffer (Perkin Elmer, No.: 1244-111)) is then added and it is incubated for 1 h at RT (shaking at 500 rpm). Then the plate is washed three times with 200 μL/well DELFIA washing buffer (Perkin Elmer, No.: 1244-114), 200 μL/well strengthening solution (Perkin Elmer, No.: 1244-105) is added and the whole is incubated for 10 min at RT (shaking at 300 rpm).
The time-delayed europium fluorescence is then measured in a microtitre plate reader (Victor, Perkin Elmer). The positive control consists of wells that contain solvent (2% DMSO in test buffer) and display uninhibited kinase activity. Wells that contain test buffer instead of enzyme act as a control for the background kinase activity.
The IC50 values are determined from concentration-activity analyses by iterative calculation using a sigmoidal curve analysis algorithm (FIFTY, based on GraphPAD Prism Version 3.03) with a variable Hill coefficient.

Test [1] concerns the target T2, PTK2-phosphorylation at tyrosine 397 (pY397) (Homo sapiens, UniProt Q05397).
T2 construct: endogenous in cells; host or cells: PC-3 (ATCC CRL-1435)
Briefly: Phospho-PTK2 (pY397) Assay in PC-3 cells. It counts as cell-based. To be noted: PC-3 prostate carcinoma cells, 2 h incubation; read-out: PC3pPTK2 Y397 EC50. On the procedure: This cellular test is used to determine the influence of PTK2-inhibitors on the state of the PTK2-phosphorylation at tyrosine 397 (pY397).
PC-3 cells (prostate carcinoma, ATCC CRL-1435) are grown in cell culture flasks (175 cm^2) with F12 Kaighn's Medium (Gibco, No.: 21127) with the addition of 10% foetal calf serum (Invitrogen, No.: 16000-044). The cultures are incubated in the incubator at 37° C. and 5% CO2 and run twice a week.
For the test, 2×10^4 cells pro well/[…] are plated out in 96-well microtitre plates (Costar, No.: 3598) and incubated overnight in the incubator at 37° C. and 5% CO2. The test compounds (10 μL from serial dilution) are added the next day. The concentration of the test compounds usually covers a range of 50 μM and 0.8 nM. The test compounds (stock solution: 10 mM in 100% DMSO) are diluted in medium/medium 10% DMSO such that the final concentration is 1% DMSO. The cells are then incubated in the incubator at 37° C. and 5% CO2 for 2 h. Then the culture supernatant is removed and the cells are fixed with 150 μL 4% formaldehyde in D-PBS for 20 min at RT. The cell lawn is washed five times with 200 μL 0.1% Triton X-100 in D-PBS for 5 min in each case and then incubated for 90 min with blocking buffer (5% skimmed milk powder (Maresi Fixmilch) in TBST (25 mM Tris/HCl, pH 8.0, 150 mM NaCl, 0.05% Tween 20). The blocking buffer is replaced by 50 μL of the first antibody anti-phospho PTK2 [pY397] rabbit monoclonal (Invitrogen/Biosource, No.: 44-625G), which is diluted 1:200 in blocking buffer. For control purposes, alternatively a PTK2 [total] antibody (clone 4.47 mouse monoclonal, Upstate, No.: 05-537), diluted 1:400 in blocking buffer is used. This incubation is carried out at 4° C. overnight. Then the cell lawn is washed five times with 100 μL of 0.1% Tween in D-PBS for 5 min in each case and 50 μL/well of second antibody are added. In order to detect bound phospho-PTK2 [pY397] antibody a goat-anti-rabbit antibody is used which is coupled with horseradish peroxidase (Dako, No.: P0448; 1:500 dilution in blocking buffer). In order to detect bound PTK2 [total]-antibodies a rabbit-anti-mouse antibody is used, which is also coupled with horseradish peroxidase (Dako, No.: PO161; 1:1000 dilution in blocking buffer). This incubation is carried out for 1 h at RT with gentle shaking. The cell lawn is then again washed five times with 100 μL of 0.1% Tween in D-PBS for 5 min in each case. […] The EC50 values are determined from concentration-activity analyses by iterative calculation with the aid of a sigmoidal curve analysis algorithm (FIFTY, based on GraphPAD Prism Version 3.03) with a variable Hill coefficient.

T1 sequence (Q05397 whole entry): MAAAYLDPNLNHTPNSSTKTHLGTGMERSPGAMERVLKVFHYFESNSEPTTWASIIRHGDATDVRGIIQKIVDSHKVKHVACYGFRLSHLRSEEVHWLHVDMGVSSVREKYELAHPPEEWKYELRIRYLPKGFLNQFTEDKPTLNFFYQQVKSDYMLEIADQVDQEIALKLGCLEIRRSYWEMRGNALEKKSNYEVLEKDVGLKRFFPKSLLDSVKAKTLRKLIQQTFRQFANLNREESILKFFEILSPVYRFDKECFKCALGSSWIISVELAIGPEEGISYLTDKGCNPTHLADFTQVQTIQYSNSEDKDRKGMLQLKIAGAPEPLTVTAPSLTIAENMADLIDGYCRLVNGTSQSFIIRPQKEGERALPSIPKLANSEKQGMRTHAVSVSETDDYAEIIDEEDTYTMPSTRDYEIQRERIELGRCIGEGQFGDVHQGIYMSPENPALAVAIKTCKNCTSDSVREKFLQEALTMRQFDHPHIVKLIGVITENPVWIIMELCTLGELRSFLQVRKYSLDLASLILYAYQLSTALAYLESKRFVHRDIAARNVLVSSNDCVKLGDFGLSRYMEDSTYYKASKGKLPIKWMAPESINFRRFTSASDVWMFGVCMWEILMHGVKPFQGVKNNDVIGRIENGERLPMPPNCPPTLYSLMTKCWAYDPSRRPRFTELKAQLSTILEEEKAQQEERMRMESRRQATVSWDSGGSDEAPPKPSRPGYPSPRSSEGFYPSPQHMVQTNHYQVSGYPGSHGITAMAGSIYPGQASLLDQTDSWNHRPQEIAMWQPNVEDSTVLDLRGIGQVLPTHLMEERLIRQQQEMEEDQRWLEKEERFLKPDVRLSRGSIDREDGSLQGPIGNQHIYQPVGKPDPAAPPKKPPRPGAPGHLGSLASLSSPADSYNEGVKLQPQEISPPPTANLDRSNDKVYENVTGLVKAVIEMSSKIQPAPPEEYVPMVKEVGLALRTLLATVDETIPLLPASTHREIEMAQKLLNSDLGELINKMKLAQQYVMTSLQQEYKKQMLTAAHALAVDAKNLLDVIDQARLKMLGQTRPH
T2 sequence (Q05397 whole entry): as above

The term IC50 denotes the point on the concentration scale where inhibition reaches its midpoint. High values mean weaker potency, low ones greater potency. For orientation: EC50 means the concentration giving half of the maximal effect. As for `COc1cc(C(=O)N[C@H]2CCN(C)C2)c(F)cc1Nc1ncc(C(F)(F)F)c(NCc2ccc(C)cc2N(C)S(C)(=O)=O)n1` [Example 23], the IC50 at PTK2 worked out at 1000 pM. In test [1], the EC50 amounted to 230 pM.

For the compound `COc1cc(C(=O)N[C@@H]2CCN(C)C[C@@H]2F)c(F)cc1Nc1ncc(C(F)(F)F)c(NCc2ccc(C)cc2N(C)S(C)(=O)=O)n1` [Example 24], the midpoint of inhibition on PTK2, the IC50, lay at 3000 pM. Also, in test [1], the EC50 came to 230 pM.

As for `CNCc1ccc(Nc2ncc(C(F)(F)F)c(NCc3ccc(C)cc3N(C)S(C)(=O)=O)n2)c(OC)c1` [Example 25], at PTK2, 1000 pM corresponded to half-maximal inhibition (IC50). In test [1], the EC50 is 240 pM.

For the compound `COc1cc(C(=O)NC2CCC3C(CCN3C)C2)ccc1Nc1ncc(C(F)(F)F)c(NCc2ccc(C)cc2N(C)S(C)(=O)=O)n1` (centres unmarked) [Example 26], the IC50 on PTK2 stood at 3000 pM. Further, the EC50 in test [1] was 250 pM.

Turning to `COc1cc(C(=O)NC2CCC(NS(C)(=O)=O)CC2)ccc1Nc1ncc(C(F)(F)F)c(NCc2ccc(C)cc2N(C)S(C)(=O)=O)n1` (centres unmarked) [Example 27], it took 4000 pM to reach half-maximal inhibition against PTK2 (IC50). Moreover, the concentration for a half-maximal effect (EC50) in test [1] stood at 270 pM.

As to `COc1cc(C(=O)N[C@H]2CN3CCC2CC3)ccc1Nc1ncc(C(F)(F)F)c(NCc2ccc(C)cc2N(C)S(C)(=O)=O)n1` [Example 28], it took 4000 pM to reach half-maximal inhibition against PTK2 (IC50). The EC50 in test [1] worked out at 270 pM.

`COc1ccc(CNc2nc(Nc3cc(F)c(C(=O)N[C@H]4CCN(C)C4)cc3OC)ncc2C(F)(F)F)c(N(C)S(C)(=O)=O)c1` [Example 29] gave an IC50 against PTK2 of 2000 pM. The 50% effective concentration (EC50) in test [1] came to 290 pM.

At PTK2, `COc1cc(C(=O)NC2CCN(CC3CC3)CC2)ccc1Nc1ncc(C(F)(F)F)c(NCc2ccc(C)cc2N(C)S(C)(=O)=O)n1` [Example 30] registered a concentration for half-maximal inhibition (IC50) of 4000 pM. In test [1], the EC50 was 290 pM.

Take `COc1cc(C(=O)NC2CCC(N(C)C(C)C)CC2)ccc1Nc1ncc(C(F)(F)F)c(NCc2ccc(C)cc2N(C)S(C)(=O)=O)n1` (centres unmarked) [Example 31]: the midpoint of inhibition on PTK2, the IC50, lay at 1000 pM. In addition, in test [1], the EC50 came to 290 pM.

In turn, `COc1cc(N2CCN(C3COC3)CC2)ccc1Nc1ncc(C(F)(F)F)c(NCc2ccc(C)cc2N(C)S(C)(=O)=O)n1` [Example 32] came in with a 50% inhibitory concentration (IC50) against PTK2 of 4000 pM. The EC50 in test [1] is 300 pM.

The compound `COc1cc(N2CCN(CC(=O)N(C)C)CC2)ccc1Nc1ncc(C(F)(F)F)c(NCc2ccc(C)cc2N(C)S(C)(=O)=O)n1` [Example 33] came in with an IC50 at PTK2 of 2000 pM. In addition, in test [1], the EC50 was found to be 300 pM.

As for `COc1cc(C(N)=O)c(Br)cc1Nc1ncc(C(F)(F)F)c(NCc2ccc(C)cc2N(C)S(C)(=O)=O)n1` [Example 34], the half-maximal inhibitory concentration (IC50) on PTK2 came out at 3000 pM. In test [1], the concentration for a half-maximal effect (EC50) amounted to 310 pM.

For the compound `COc1cc(CNC2CCOCC2)ccc1Nc1ncc(C(F)(F)F)c(NCc2ccc(C)cc2N(C)S(C)(=O)=O)n1` [Example 35], on PTK2, it took 3000 pM to reach half-maximal inhibition (IC50). In addition, the EC50 in test [1] came out at 310 pM.

On PTK2, `COc1cc(C(=O)N[C@@H]2CCN(C)C2)c(F)cc1Nc1ncc(C(F)(F)F)c(NCc2ccc(C)cc2N(C)S(C)(=O)=O)n1` [Example 36] displayed a concentration for half-maximal inhibition (IC50) of 2000 pM. In addition, the half-maximal effective concentration (EC50) in test [1] stood at 320 pM.

With `COc1cc(C(=O)NC2CCN(C3CC3)CC2)ccc1Nc1ncc(C(F)(F)F)c(NCc2ccc(C)cc2N(C)S(C)(=O)=O)n1` [Example 38], the IC50 at PTK2 amounted to 4000 pM. The EC50 in test [1] was determined as 350 pM.

On to `COc1ccc(CNc2nc(Nc3cc(F)c(C(=O)NC4CCN(C)CC4)cc3OC)ncc2C(F)(F)F)c(N(C)S(C)(=O)=O)c1` [Example 40], for which 1000 pM corresponded to half-maximal inhibition against PTK2 (IC50). Besides, the 50% effective concentration (EC50) in test [1] stood at 370 pM.

`COc1ccc(CNc2nc(Nc3cc(F)c(C(=O)N[C@@H]4CCN(C)C4)cc3OC)ncc2C(F)(F)F)c(N(C)S(C)(=O)=O)c1` [Example 41] returned a half-maximal inhibitory concentration (IC50) on PTK2 of 2000 pM. The concentration giving a half-maximal response (EC50) in test [1] was 390 pM.

On PTK2, `COc1cc(N2CCN(CC(=O)N3CCOCC3)CC2)ccc1Nc1ncc(C(F)(F)F)c(NCc2ccc(C)cc2N(C)S(C)(=O)=O)n1` [Example 42] came in with an IC50 of 4000 pM. Also, in test [1], the EC50 came out at 390 pM.

Compound `COc1cc(C(=O)NC2CCN(C)CC2)c(F)cc1Nc1ncc(C(F)(F)F)c(NCc2ccc(C)cc2N(C)S(C)(=O)=O)n1` [Example 43] came in with a 50% inhibitory concentration (IC50) at PTK2 of 2000 pM. Further, the EC50 in test [1] was found to be 400 pM.

The values above are taken from patent US8377943B2, “2,4-diaminopyrimidine derivates as PTK2-inhibitors for the treatment of abnormal cell growth” (Boehringer Ingelheim International GmbH, priority 2008, dated 2013).
